According to patent publication US5011847A, “2,5-diaryl tetrahydrofurans and analogs thereof as PAF antagonists” (Merck & Co., Inc., priority 1989, dated 1991):

Biological target: T1, PAF specific receptor binding site, human platelet membranes (Homo sapiens, UniProt P25105)
T1 construct: from tissue; host or cells: human platelets (plasma membrane suspension)
Experiment: Inhibition of [3H] N-methylcarbamoyl-PAF binding to human platelet membranes
Conditions: trans configuration; for inhibition at 0.003 µM: 3 nM; for inhibition at 0.03 µM: 30 nM
Protocol: The compounds of formula (I) inhibit PAF-induced functions in both the cellular and tissue levels by changing the PAF binding to its specific receptor site. The ability of a compound of formula (I) to inhibit the PAF binding to its specific receptor binding site on rabbit or human platelet or PMN plasma membranes was measured by a recently developed assay.
The inhibition of ^3 [H]-PAF or ^3 [H]-N-methylcarbamoyl-PAF binding to the human or rabbit platelet or PMN plasma membrane by a PAF antagonist of formula (I) was determined by a method employing isotopic labeling and filtration techniques. Generally, a series of Tris-buffered solutions of the selected antagonist at predetermined concentrations were prepared. Each of these solutions contains 1 pmole of ^3 H-PAF, a known amount of the test antagonist, and a sufficient amount of the pH 7.5 Tris-buffer solution (10 mM Tris, 0.25% bovine serum albumin, and 150 mM NaCl per ml water) to make the final volume of 1 ml. After adding into a set of test tubes each with 100 μg of the platelet plasma membrane suspension (S. B. Hwang, et al., Biochemistry. Vol. 22, pp. 4756-4763, 1983) and one of the Tris-buffer solutions described above, the resulting mixture in each test tube was incubated at 0° C. for about one hour or until the reaction was complete. Two control samples, one of which (C1) contains all the ingredients described above except the antagonist and the other (C2) contains C 1 plus a 1000-fold excess of unlabeled PAF, were also prepared and incubated simultaneously with the test samples. After the incubation was completed, the contents of each test tube were filtered under vacuo through a Whatman GF/C fiberglass filter and the residue washed rapidly several times with a total of 20 ml cold (0°-5° C.) Tris buffer solution. Each washed residue was then suspended in 10 ml scintillation solution (Aquasol 2, New England Nuclear, Conn.) and the radioactivity was counted in a Packard Tri-Carb 460CD Liquid Scintillation System. Defining the counts from a test sample as "Total binding with antagonist"; the counts from the control sample C1, as "Total binding C1 "; and the counts from the control sample C2 as "non-specific binding C2 ", the percent inhibition of each test antagonist can be determined by the following equations: [formula]
Specific binding=(Total binding C1)-(non-specific binding C2)
*Inibition of the binding of [^3 H] Nmethylcarbamoyl-PAF to human

T1 sequence (P25105 whole entry): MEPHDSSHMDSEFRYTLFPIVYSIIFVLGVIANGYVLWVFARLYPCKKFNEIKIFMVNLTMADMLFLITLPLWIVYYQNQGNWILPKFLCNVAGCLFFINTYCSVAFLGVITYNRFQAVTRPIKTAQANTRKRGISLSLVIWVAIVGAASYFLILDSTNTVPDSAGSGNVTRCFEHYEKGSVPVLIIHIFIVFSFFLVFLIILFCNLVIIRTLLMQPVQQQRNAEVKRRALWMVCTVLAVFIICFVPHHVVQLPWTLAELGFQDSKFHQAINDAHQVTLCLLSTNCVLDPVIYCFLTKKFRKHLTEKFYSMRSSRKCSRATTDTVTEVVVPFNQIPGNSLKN

SMILES	inhibition at 0.003 µM [%]	inhibition at 0.03 µM [%]
CCCOc1c(OCC(C)O)cc([C@@H]2CC[C@@H](c3cnc(OC)c(OC)n3)O2)cc1S(=O)(=O)CCC (stereo partly drawn) [trans-2-[3-n-propylsulfonyl-4-n-propoxy-5-(2-hydroxypropoxy)phenyl]-5-[6-(2,3-dimethoxy)pyrazyl]tetrahydrofuran]	60	100
CCCOc1c(OCC(C)=O)cc([C@H]2CC[C@H](c3cccnc3)O2)cc1S(=O)(=O)CCC (relative stereo) [trans-2-[3-n-propylsulfonyl-4-n-propoxy-5-(2-oxopropoxy)phenyl]-5-(3-pyridyl) tetrahydrofuran]	12	66
CCCOc1c(OCC(C)=O)cc([C@@H]2CC[C@@H](c3cnc(OC)c(OC)n3)O2)cc1S(=O)(=O)CCC (relative stereo) [trans-2-[3-n-propylsulfonyl-4-n-propoxy-5-(2-oxopropoxy)phenyl]-5-[6-(2,3-dimethoxy)pyrazyl]tetrahydrofuran]	58	100
CCCOc1c(OCC(C)=O)cc([C@@H]2CC[C@@H](c3cnc(OC)c(OC)n3)O2)cc1S(=O)(=O)CC(C)O (stereo partly drawn) [trans-2-[3-(2-Hydroxypropyl)sulfonyl-4-n-propoxy-5-(2-oxopropoxy)phenyl]-5-[6-(2.3 dimethoxy)pyrazyl]tetrahydrofuran]	42	81
CCCOc1c(OCCCO)cc([C@@H]2CC[C@@H](c3cnc(OC)c(OC)c3)O2)cc1S(=O)(=O)CC(C)O (stereo partly drawn) [trans-2-[3-(2-Hydroxypropyl)sulfonyl-4-n-propoxy-5-(3-hydroxypropoxy)phenyl]-5[5-(2,3-dimethoxy)pyridyl]tetrahydrofuran]	16	75
CCCOc1c(OCCO)cc([C@@H]2CC[C@@H](c3cnc(OC)c(OC)c3)O2)cc1S(=O)(=O)CC(C)O (stereo partly drawn) [trans-2-[3-(2-Hydroxypropyl)sulfonyl-4-n-propoxy 5-(2-hydroxyethoxy)phenyl]-5-[5-(2,3-dimethoxy)pyridyl]tetrahydrofuran]	13	58
CCCOc1c(OCC(C)O)cc([C@@H]2CC[C@@H](c3cnc(OC)c(OC)c3)O2)cc1S(=O)(=O)CCC (stereo partly drawn) [trans-2-[3-n-propylsulfonyl-4-n-propoxy-5-(2-hydroxypropoxy)phenyl]-5-[5-(2,3-dimethoxy)pyridyl]tetrahydrofuran]	54	100

Continued, values first:

inhibition at 0.003 µM [%]	inhibition at 0.03 µM [%]	SMILES
30	66	CCCOc1c(OCC(C)=O)cc([C@@H]2CC[C@@H](c3cnc(OC)c(OC)c3)O2)cc1S(=O)(=O)CCCO (relative stereo)
43	87	CCCOc1c(OCCCO)cc([C@@H]2CC[C@@H](c3cnc(OC)c(OC)c3)O2)cc1S(=O)(=O)CC(C)=O (relative stereo) [trans-2-[3-(2-oxopropyl)sulfonyl-4-n-propoxy-5-(3-hydroxypropoxy)phenyl]-5[5-(2,3-dimethoxy)pyridyl]tetrahydrofuran]
31	81	CCCOc1c(OCC(C)=O)cc([C@@H]2CC[C@@H](c3cnc(OC)c(OC)c3)O2)cc1S(=O)(=O)CC(C)O (stereo partly drawn) [trans-2-[3-(2-Hydroxypropyl)sulfonyl-4-n-propoxy-5-(2-oxopropoxy)phenyl]-5-[5-(2,3-dimethoxy)pyridyl]tetrahydrofuran]
63	93	CCCOc1c(OCC(C)=O)cc([C@@H]2CC[C@@H](c3cnc(OC)c(OC)c3)O2)cc1S(=O)(=O)CCC (relative stereo) [trans-2-[3-n-propylsulfonyl-4-n-propoxy-5-(2-oxopropoxy)phenyl]-5-[5-(2,3-dimethoxy)pyridyl]tetrahydrofuran]
